Legend:
[1] = system: SSX2 mouse sarcoma cell line; assay: Cancer cell growth in vitro (images after three days); type: cell-based; conditions: 200 nM BEZ235; three days after plating; 100,000 cells per flask
Method: An SSX2 mouse sarcoma cell line (described in Rekoske et al., Cancer Immunol Res August 2015 3; 946) was split and 100,000 cells plated into each of two […] flasks. Cells were grown in RPMI-1640, 5% FCS, 200 U/mL Pen/Strep, 50 μM β-MeOH with or without 200 nM BEZ235 PI3-Kinase inhibitor. FIG. 2 left, mouse sarcoma cell line grown in normal media three days after plating; shown at […] and 10× and right, sarcoma cells from the same split plated with the same number of cells/cm^2 and grown in media containing the pan-PI3K inhibitor BEZ235.

[2] = system: activated (CD137+) CD8+ T cells; assay: In vitro stimulation of splenocytes, surface expression of LAG-3 and PD1 by flow cytometry; type: cell-based, mouse; conditions: 200nM BEZ235; WT (CD3/28 beads) or OT1 (SIINFEKL peptide) splenocytes; 24 h
Method: FIG. 1A depicts WT (top) and OT1 (bottom) splenocytes stimulated with either CD3/28 beads or SIINFEKL peptide respectively, with/without PI3K inhibition and assayed for surface expression of LAG-3 (left graphs) or PD1 (right graphs) on activated (CD137+) CD8+ T cells at 24 h. FIG. 1B depicts a representative OT1 sample showing levels of LAG-3 and PD1 on CD8+ T cells upon in vitro SIINFEKL stimulation in the presence of a PI3K inhibitor. (* denotes a p-value <0.05, two way Mann-Whitney test) FIG. 1C depicts WT splenocytes stimulated with CD3/28 beads with/without PI3K inhibition and assayed for intracellular expression of cytokines in CD8+ T cells.
Splenocytes from either OT-1 or wild type (WT) C57BL/6J mice were cultured in RPMI-1640, 10% FCS, 200U/mL Pen/Strep, 1% NaPyr, 1% HEPES, 50 μM β-MeOH and 2 μg/mL SIINFEKL peptide (OT1 cells) or CD3 and CD28 antibody coated latex beads (WT cells) with or without 200nM BEZ235 PI3-Kinase inhibitor (Selleckchem, Catalog No. S1009).
(* denotes a p-value <0.05, two way Mann-Whitney test).

In the case of Cn1c(=O)n(-c2ccc(C(C)(C)C#N)cc2)c2c3cc(-c4cnc5ccccc5c4)ccc3ncc21 [BEZ235], the cell growth [1] is reported as “inhibited cell growth”, the “surface expression of LAG-3 on CD8+ T cells” value [2] is reported as “increased expression of LAG-3” and the “surface expression of PD-1 on CD8+ T cells” value [2] is reported as “reduced expression of PD-1”.

From patent US20180043011A1, “PI3-Kinase Inhibition and LAG-3 Checkpoint blockade as a Combination Therapy for Cancer” (Wisconsin Alumni Research Foundation, priority 2016, published 2018)
